Laboratory results published in patent EP0085843A1, “Antimycosic agent” (BAYER AG, priority 1982, dated 1983).

What was measured:
Candida = experiment: Antifungal in-vivo activity (oral) in mouse candidosis; parameters: species or system Mäuse vom Typ SPF-CF1; key to Wirkung (Ueberlebende am 6.Tag p.i.): +++++: = sehr gute Wirkung = 90 % Ueberlebende am 6.Tag p.i.; ++++: = gute Wirkung = 80 % Ueberlebende am 6.Tag p.i.; +++: = Wirkung = 60 % Ueberlebende am 6.Tag p.i.; ++: = schwache Wirkung = 40 % Ueberlebende am 6.Tag p.i.; +: = Spur Wirkung = unter 40% " " " "; k.W.: = keine Wirkung; details: for Wirkung (Ueberlebende am 6.Tag p.i.): 50 - 100 mg/kg one hour before and seven hours after i.v. infection; for Wirkung compared with known compounds (A), (B), (C), (D): mouse candidosis
Protocol: Mäuse vom Typ SPF-CF1 wurden intravenös mit 1 - 2 x 10^6 logarithmisch wachsenden Candida-Zellen, die in physiologischer Kochsalzlösung suspendiert werden, infiziert. Eine Stunde vor und sieben Stunden nach der Infektion werden die Tiere mit jeweils 50 - 100 mg/kg Körpergewicht der Präparate oral behandelt.
Unbehandelte Tiere starben 3 bis 6 Tage post infektionem. Die Ueberlebensrate am 6.Tag post infektionem betrug bei unbehandelten Kontrolltieren etwa 5 %.

[1] = tested on: Trichophyton mentagrophytes; experiment: In-vivo activity (local) in experimental guinea pig trichophytosis; parameters: species or system Meerschweinchen; key to Wirkung (Infektionszeichen): +++++: sehr gute Wirkung = keine Infektionszeichen am 12.-15.Tag p.i.; ++++: gute Wirkung = geringe Rötung, vereinzelt Schuppen; +++: Wirkung = Rötung, Schuppung, ohne Haarausfall; ++: schwache Wirkung = Rötung, Schuppung, Haarausfall; +: Spur Wirkung = flächiger Haarausfall, entzündliche Hautreaktion; details: for Wirkung (Infektionszeichen): 1x daily from day 3 p.i., 15%-ige Lösung in Dimethylsulfoxid : Glycerin = 1 : 4; for Wirkung: trichophytosis model
[2] = tested on: Dermatophyten, Schimmelpilze, Hefen; experiment: Antifungal in-vitro activity, serial dilution test, overall statement; assay type: cell-based
Protocol: Versuchsbeschreibung: • Die in-vitro-Prüfungen wurden im Reihenverdünnungstest mit Keiminokula von durchschnittlich 5 x 10^4 Keimen/ml Substrat durchgeführt. Als Nährmedium dienten • a) für Dermatophyten und Schimmelpilze: Sabouraud's milieu d'epreuve • b) für Hefen: • Fleischextrakt-Traubenzucker-Bouillon.
Die Bebrütungstemperatur betrug 20°C, die Bebrütungsdauer lag bei 24 bis 96 Stunden bei Hefen und 96 Stunden bei Dermatophyten und Schimmelpilzen.

Structure (SMILES): COC(COc1ccc(Cl)cc1C)(Cn1cncn1)C(C)(C)C (centres unmarked) [Beispiel 1, 2-(4-Chlor-2-methyl-phenoxymethyl)-3,3-dimethyl-2-methoxy-1-(1,2,4-triazol-1-yl)-butan]
- Wirkung (Ueberlebende am 6.Tag p.i.) (Candida): +++ (= Wirkung = 60 % Ueberlebende am 6.Tag p.i.)
- Wirkung compared with known compounds (A), (B), (C), (D) (Candida): bessere Wirkung
- Wirkung (Infektionszeichen) [1]: ++++
- Wirkung [1]: gute Wirkung
- antimykotische Wirkung compared with known compounds (A), (B), (C), (D) [2]: bessere antimykotische Wirkung

Structure (SMILES): Cc1ccc(OCC(O)(Cn2cncn2)C(C)(C)C)cc1 (centres unmarked) [(A), reference compound]
- Wirkung (Ueberlebende am 6.Tag p.i.) (Candida): k.W.

Structure (SMILES): COC(CCc1ccc(Cl)cc1)(Cn1cncn1)C(C)(C)C (centres unmarked) [Beispiel 4]
- Wirkung (Ueberlebende am 6.Tag p.i.) (Candida): +++++ (= sehr gute Wirkung = 90 % Ueberlebende am 6.Tag p.i.)
- Wirkung compared with known compounds (A), (B), (C), (D) (Candida): bessere Wirkung
- Wirkung (Infektionszeichen) [1]: ++++
- Wirkung [1]: gute Wirkung
- antimykotische Wirkung compared with known compounds (A), (B), (C), (D) [2]: bessere antimykotische Wirkung

Structure (SMILES): COC(COc1ccc(Cl)cc1)(Cn1cncn1)C(C)(C)C (centres unmarked) [Beispiel 2]
- Wirkung (Ueberlebende am 6.Tag p.i.) (Candida): ++++ (= gute Wirkung = 80 % Ueberlebende am 6.Tag p.i.)
- Wirkung compared with known compounds (A), (B), (C), (D) (Candida): bessere Wirkung
- Wirkung (Infektionszeichen) [1]: ++++
- Wirkung [1]: gute Wirkung

Structure (SMILES): COC(CCc1ccc(F)cc1)(Cn1cncn1)C(C)(C)C (centres unmarked) [Beispiel 5]
- Wirkung (Ueberlebende am 6.Tag p.i.) (Candida): ++++ (= gute Wirkung = 80 % Ueberlebende am 6.Tag p.i.)
- Wirkung compared with known compounds (A), (B), (C), (D) (Candida): bessere Wirkung
- Wirkung (Infektionszeichen) [1]: ++++
- Wirkung [1]: gute Wirkung
- antimykotische Wirkung compared with known compounds (A), (B), (C), (D) [2]: bessere antimykotische Wirkung

Structure (SMILES): Cc1cc(Cl)ccc1OCC(O)(Cn1cncn1)C(C)(C)C (centres unmarked) [(C), reference compound]
- Wirkung (Ueberlebende am 6.Tag p.i.) (Candida): k.W.

Structure (SMILES): COC(COc1ccc(Cl)cc1Cl)(Cn1cncn1)C(C)(C)C (centres unmarked) [Beispiel 3]
- Wirkung (Ueberlebende am 6.Tag p.i.) (Candida): +++ (= Wirkung = 60 % Ueberlebende am 6.Tag p.i.)
- Wirkung compared with known compounds (A), (B), (C), (D) (Candida): bessere Wirkung
- Wirkung (Infektionszeichen) [1]: ++++
- Wirkung [1]: gute Wirkung
- antimykotische Wirkung compared with known compounds (A), (B), (C), (D) [2]: bessere antimykotische Wirkung
